Data taken from patent US7304093B2, “Ketone compounds and compositions for cholesterol management and related uses” (Esperion Therapeutics, Inc., priority 2000, dated 2007).
Where two headings read alike, the source gives them in different places. Marks after values point to notes of the source that are not given here.

Tested on: female obese Zucker rats
Experiment: Serum lipid and glycemic control variables in chow-fed obese female Zucker rats, daily oral gavage for two weeks
Format: in vivo, rat
Details: for change in vivo at 100 mg/kg: Rattus norvegicus, Table 9; for Glucose / HDL-C / NEFA / Non-HDL-C / TG / Insulin: serum, mean ± SEM; for Insulin: Tables 10, 11
Procedure, shortened: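 Female obese Zucker fa rats, 10–12 wk, 400–500 g, chow-fed, dosed daily by oral gavage for 14 days in CMC/Tween 20 or ethanol/PEG-200 vehicle. After a 6-h fast, serum was sampled pre-dose, day 7 and day 14. Triglycerides, total cholesterol, NEFA and β-hydroxybutyrate were measured, plus lipoprotein cholesterol by gel-filtration profiling.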

**Q.** How did the “Insulin, percent increase (+) or decrease (−) of the pretreatment control value” (10 mg/kg daily oral, 1 wk) turn out when `CC(C)(CCCCC(=O)CCCCC(C)(C)C(=O)O)C(=O)O` [Compound 210c, 7-Oxo-2,2,12,12-tetramethyltridecanedioic acid] was run?
**A.** Its value is “(−27) percent”.

**Q.** And the “Non-HDL-C, percent increase (+) or decrease (−) of the pretreatment control value” (10 mg/kg daily oral, 1 wk)?
**A.** The value was “(−35) percent”.

**Q.** What about the “HDL-C, percent increase (+) or decrease (−) of the pretreatment control value” (30 mg/kg daily oral, 1 wk) of the same molecule?
**A.** The value was “(+156) percent”.

**Q.** What about the “NEFA, percent increase (+) or decrease (−) of the pretreatment control value” (from here on “NEFA, percent increase (+) or decrease”) (30 mg/kg daily oral, 1 wk) of the same molecule?
**A.** Its value is “(−29) percent”.

**Q.** And the “Non-HDL-C, percent increase (+) or decrease (−) of the pretreatment control value” (30 mg/kg daily oral, 1 wk)?
**A.** Its value is “(−23) percent”.

**Q.** What about the “TG, percent increase (+) or decrease (−) of the pretreatment control value” (shortened to “TG, percent increase (+) or decrease (−)”) (30 mg/kg daily oral, 1 wk) of the same molecule?
**A.** Its value is “(−33) percent”.

**Q.** What about the “HDL-C, percent increase (+) or decrease (−) of the pretreatment control value” (30 mg/kg daily oral, 2 wk) of the same molecule?
**A.** The value was “(+147) percent”.

**Q.** What about the “HDL-C, percent increase (+) or decrease (−) of the pretreatment control value” (100 mg/kg daily oral, 1 wk) of the same molecule?
**A.** The value was “(+174) percent”.

**Q.** What about the “NEFA, percent increase (+) or decrease” value (100 mg/kg daily oral, 1 wk) of the same molecule?
**A.** Its value is “(−33) percent”.

**Q.** And the “Non-HDL-C, percent increase (+) or decrease (−) of the pretreatment control value” (100 mg/kg daily oral, 1 wk)?
**A.** The value was “(−42) percent”.

**Q.** And the “TG, percent increase (+) or decrease (−)” value (100 mg/kg daily oral, 1 wk)?
**A.** Its value is “(−60) percent”.

**Q.** And the “HDL-C, percent increase (+) or decrease (−) of the pretreatment control value” (100 mg/kg daily oral, 2 wk)?
**A.** The value was “(+179) percent”.

**Q.** What about the “NEFA, percent increase (+) or decrease” value (100 mg/kg daily oral, 2 wk) of the same molecule?
**A.** Its value is “(−45) percent”.

**Q.** What about the “Non-HDL-C, percent increase (+) or decrease (−) of the pretreatment control value” (100 mg/kg daily oral, 2 wk) of the same molecule?
**A.** Its value is “(−29) percent”.

**Q.** What about the “TG, percent increase (+) or decrease (−)” value (100 mg/kg daily oral, 2 wk) of the same molecule?
**A.** Its value is “(−54) percent”.

**Q.** What about the change in vivo at 100 mg/kg (168 h, 100 mg/kg daily oral, 1 wk, read-out: HDL-Cholesterol, Percent Change from Pre-Treatment) of the same molecule?
**A.** Its change in vivo at 100 mg/kg is 54%.

**Q.** And the change in vivo at 100 mg/kg (168 h, 100 mg/kg daily oral, 1 wk, read-out: NonHDL-Cholesterol, Percent Change from Pre-Treatment)?
**A.** Its change in vivo at 100 mg/kg is -62%.

**Q.** And the change in vivo at 100 mg/kg (168 h, 100 mg/kg daily oral, 1 wk, read-out: TG, Percent Change from Pre-Treatment)?
**A.** Its change in vivo at 100 mg/kg is -74%.

**Q.** And the change in vivo at 100 mg/kg (336 h, 100 mg/kg daily oral, 2 wk, read-out: HDL-Cholesterol, Percent Change from Pre-Treatment)?
**A.** The change in vivo at 100 mg/kg was 78%.

**Q.** And the change in vivo at 100 mg/kg (336 h, 100 mg/kg daily oral, 2 wk, read-out: NonHDL-Cholesterol, Percent Change from Pre-Treatment)?
**A.** The change in vivo at 100 mg/kg was -41%.

**Q.** What about the change in vivo at 100 mg/kg (336 h, 100 mg/kg daily oral, 2 wk, read-out: TG, Percent Change from Pre-Treatment) of the same molecule?
**A.** The change in vivo at 100 mg/kg was -69%.

**Q.** What about the Glucose (3 mg/kg daily oral, 1 wk) of the same molecule?
**A.** The Glucose was 99 ± 4 mg/dL.

**Q.** What about the HDL-C (3 mg/kg daily oral, 1 wk) of the same molecule?
**A.** Its HDL-C is 36 ± 1 mg/dL.

**Q.** And the NEFA (3 mg/kg daily oral, 1 wk)?
**A.** The NEFA was 1.2 ± 0.16 mg/dL.

**Q.** What about the Non-HDL-C (3 mg/kg daily oral, 1 wk) of the same molecule?
**A.** The Non-HDL-C was 24 ± 2 mg/dL.

**Q.** And the TG (3 mg/kg daily oral, 1 wk)?
**A.** The TG was 775 ± 92 mg/dL.

**Q.** And the Insulin (3 mg/kg daily oral, 1 wk)?
**A.** The Insulin was 10.7 ± 0.8 ng/dL.

**Q.** And the Glucose (3 mg/kg daily oral, 2 wk)?
**A.** The Glucose was 103 ± 3 mg/dL.

**Q.** What about the HDL-C (3 mg/kg daily oral, 2 wk) of the same molecule?
**A.** Its HDL-C is 33 ± 1 mg/dL.

**Q.** And the NEFA (3 mg/kg daily oral, 2 wk)?
**A.** Its NEFA is 1.5 ± 0.27 mg/dL.

**Q.** And the Non-HDL-C (3 mg/kg daily oral, 2 wk)?
**A.** Its Non-HDL-C is 24 ± 3 mg/dL.

**Q.** What about the TG (3 mg/kg daily oral, 2 wk) of the same molecule?
**A.** Its TG is 857 ± 103 mg/dL.

**Q.** What about the Insulin (3 mg/kg daily oral, 2 wk) of the same molecule?
**A.** The Insulin was 8.6 ± 0.5 ng/dL.

**Q.** And the Glucose (10 mg/kg daily oral, 1 wk)?
**A.** The Glucose was 105 ± 3 mg/dL.

**Q.** What about the HDL-C (10 mg/kg daily oral, 1 wk) of the same molecule?
**A.** The HDL-C was 47 ± 7 mg/dL.

**Q.** And the NEFA (10 mg/kg daily oral, 1 wk)?
**A.** The NEFA was 0.92 ± 0.09.

**Q.** What about the Non-HDL-C (10 mg/kg daily oral, 1 wk) of the same molecule?
**A.** The Non-HDL-C was 26 ± 4^a mg/dl.

**Q.** What about the TG (10 mg/kg daily oral, 1 wk) of the same molecule?
**A.** Its TG is 692 ± 180 mg/dL.

**Q.** And the Insulin (10 mg/kg daily oral, 1 wk)?
**A.** The Insulin was 7.7 ± 1.0^a ng/dl.

**Q.** What about the Glucose (10 mg/kg daily oral, 2 wk) of the same molecule?
**A.** Its Glucose is 113 ± 3 mg/dL.

**Q.** And the HDL-C (10 mg/kg daily oral, 2 wk)?
**A.** The HDL-C was 39 ± 5 mg/dL.

**Q.** What about the NEFA (10 mg/kg daily oral, 2 wk) of the same molecule?
**A.** The NEFA was 1.5 ± 0.28 mg/dL.

**Q.** What about the Non-HDL-C (10 mg/kg daily oral, 2 wk) of the same molecule?
**A.** The Non-HDL-C was 27 ± 4 mg/dL.

**Q.** And the TG (10 mg/kg daily oral, 2 wk)?
**A.** The TG was 814 ± 205 mg/dL.

**Q.** What about the Insulin (10 mg/kg daily oral, 2 wk) of the same molecule?
**A.** The Insulin was 8.9 ± 1.3 ng/dL.

**Q.** What about the Glucose (30 mg/kg daily oral, 1 wk) of the same molecule?
**A.** The Glucose was 115 ± 4 mg/dL.

**Q.** And the HDL-C (30 mg/kg daily oral, 1 wk)?
**A.** The HDL-C was 53 ± 8^a mg/dl.

**Q.** And the NEFA (30 mg/kg daily oral, 1 wk)?
**A.** The NEFA was 1.0 ± 0.11.

**Q.** What about the Non-HDL-C (30 mg/kg daily oral, 1 wk) of the same molecule?
**A.** The Non-HDL-C was 37 ± 4^a mg/dl.

**Q.** And the TG (30 mg/kg daily oral, 1 wk)?
**A.** The TG was 826 ± 92^a mg/dl.

**Q.** And the Insulin (30 mg/kg daily oral, 1 wk)?
**A.** The Insulin was 9.2 ± 1.3 ng/dL.

**Q.** What about the Glucose (30 mg/kg daily oral, 2 wk) of the same molecule?
**A.** The Glucose was 118 ± 8 mg/dL.

**Q.** What about the HDL-C (30 mg/kg daily oral, 2 wk) of the same molecule?
**A.** Its HDL-C is 50 ± 9^a mg/dl.

**Q.** What about the NEFA (30 mg/kg daily oral, 2 wk) of the same molecule?
**A.** Its NEFA is 1.1 ± 0.20 mg/dL.

**Q.** And the Non-HDL-C (30 mg/kg daily oral, 2 wk)?
**A.** The Non-HDL-C was 43 ± 5 mg/dL.

**Q.** And the TG (30 mg/kg daily oral, 2 wk)?
**A.** Its TG is 962 ± 118 mg/dL.

**Q.** What about the Insulin (30 mg/kg daily oral, 2 wk) of the same molecule?
**A.** Its Insulin is 8.5 ± 1.8 ng/dL.

**Q.** And the Glucose (100 mg/kg daily oral, 1 wk)?
**A.** The Glucose was 113 ± 6 mg/dL.

**Q.** And the HDL-C (100 mg/kg daily oral, 1 wk)?
**A.** The HDL-C was 66 ± 9^a mg/dl.

**Q.** And the NEFA (100 mg/kg daily oral, 1 wk)?
**A.** Its NEFA is 0.81 ± 0.07.

**Q.** What about the Non-HDL-C (100 mg/kg daily oral, 1 wk) of the same molecule?
**A.** The Non-HDL-C was 18 ± 3^a mg/dl.

**Q.** What about the TG (100 mg/kg daily oral, 1 wk) of the same molecule?
**A.** Its TG is 383 ± 49^a mg/dl.

**Q.** What about the Insulin (100 mg/kg daily oral, 1 wk) of the same molecule?
**A.** The Insulin was 9.0 ± 1.0 ng/dL.

**Q.** What about the Glucose (100 mg/kg daily oral, 2 wk) of the same molecule?
**A.** The Glucose was 122 ± 7 mg/dL.

**Q.** What about the HDL-C (100 mg/kg daily oral, 2 wk) of the same molecule?
**A.** Its HDL-C is 68 ± 10^a mg/dl.

**Q.** What about the NEFA (100 mg/kg daily oral, 2 wk) of the same molecule?
**A.** Its NEFA is 0.66 ± 0.06.

**Q.** And the Non-HDL-C (100 mg/kg daily oral, 2 wk)?
**A.** Its Non-HDL-C is 22 ± 3^a mg/dl.

**Q.** And the TG (100 mg/kg daily oral, 2 wk)?
**A.** Its TG is 440 ± 58^a mg/dl.

**Q.** What about the Insulin (100 mg/kg daily oral, 2 wk) of the same molecule?
**A.** The Insulin was 9.5 ± 0.9 ng/dL.
